# Measurements reported in BindingDB's records for doi:10.1021/bi400413c (Stony Brook University, 2013).
# Molecular target: T1, Enoyl-[acyl-carrier-protein] reductase [NADPH] FabI (Staphylococcus aureus (strain MRSA252), UniProt Q6GI75)
# T1 sequence (Q6GI75 whole entry): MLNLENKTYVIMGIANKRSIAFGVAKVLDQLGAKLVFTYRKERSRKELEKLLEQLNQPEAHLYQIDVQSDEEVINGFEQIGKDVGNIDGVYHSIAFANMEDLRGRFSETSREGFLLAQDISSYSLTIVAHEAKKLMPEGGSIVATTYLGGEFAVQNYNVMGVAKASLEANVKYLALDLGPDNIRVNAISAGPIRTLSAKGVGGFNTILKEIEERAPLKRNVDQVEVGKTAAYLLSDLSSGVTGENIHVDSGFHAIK
# Test: Thermal Shift Assay
# Conditions: pH 7.5
# Procedure: ThermoFluor experiments were carried out in 96-well plates (Concord) using the CFX96 RealTime PCR Detection system and C1000 Thermal Cycler (BioRad).
row,Ki [nM],SMILES
1,0.5,Cc1ccccc1Oc1ccc(CCc2ccccc2)cc1O [PT162]
2,0.07,CCCc1ccc(Oc2ccccc2)c(O)c1 [PT02]
3,0.12,CCCCCCc1ccc(Oc2ccccc2N)c(O)c1
4,0.11,C=CCc1ccc(Oc2ccccc2)c(O)c1 [PT68]
5,0.82,CCCCCCCCc1ccc(Oc2ccccc2)c(O)c1 [5-Octyl-2-phenoxy-phenol]
6,1.01,N#Cc1ccccc1Oc1ccc(F)cc1O [PT446]
7,0.06,Oc1cc(Br)ccc1Oc1ccccc1 [5-bromo-2-phenoxylphenol]
8,1.42,Oc1cc(F)ccc1Oc1ccccc1 [PT55]
9,0.05,N#Cc1ccccc1Oc1ccc(Br)cc1O [PT443]
10,0.1,Oc1cc(Cc2ccccc2)ccc1Oc1ccccc1 [PT89]

row,SMILES,Ki [nM]
1,CCCCCc1ccc(Oc2ccccc2)c(O)c1 [5-pentyl-2-phenoxylphenol],0.04
2,Oc1ccccc1Oc1ccccc1 [2-phenoxylphenol],18.9
3,Cc1ccc(Oc2ccccc2)c(O)c1 [PT53],0.38
4,CCCCCCc1ccc(Oc2ccccc2)c(O)c1 [5-hexyl-2-phenoxyphenol],0.01
